{
  "source": "patent US11795199B2",
  "about": "“Peptide targeting Mycobacterium tuberculosis toxin-antitoxin system and use thereof” (Seoul National University R&DB Foundation, priority 2017, dated 2023)",
  "key": {"[1]": {"target": "T1, VapBC26 protein complex containing Y51E (Mycobacterium tuberculosis, UniProt O53778, Y51E)"}, "[2]": {"target": "T1, VapBC26 protein complex containing Y51E", "remark": "listed apart in the source"}},
  "data": [
    {"sequence": "DAELAVLRELAG [mimetic peptide for VapC26 α4]", "values": [
      {"measurement": "fluorescence increase in Y51E", "setting": "[1]", "value": 15.07, "unit": "%"},
      {"measurement": "calculated area corresponding to VapC26, larger than with the native protein complex", "setting": "[2]", "value": 15.42, "unit": "%"}
    ]}
  ]
}
